Experimental data from patent US10363239B2, “Method for inhibiting growth of cancer cells” (Pain Therapeutics, Inc., priority 2013, dated 2019).
Like-named read-outs stand apart in the source and are kept apart here.

Columns and labels:
[1] = target: FLNA pentapeptide of SEQ ID NO: 1 (Bn-VAKGL) (Homo sapiens, UniProt P21333); assay: FITC-NLX-based FLNA screening assay (inhibition of FITC-naloxone binding to Bn-VAKGL on streptavidin plates); conditions: 10 nM FITC-NLX
mu opiate receptor (MOR) = assay: MOR agonist activity using [35S]GTPγS binding assay in striatal membranes; type: biochemical; conditions: Series B; for % DAMGO (0.1 μM) / % DAMGO (1 μM): relative to DAMGO; for % DAMGO + BFNA: 1 μM compound + β-FNA, relative to DAMGO + BFNA
In short: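 Striatal membranes (200 μg) were preincubated 5 min at 30 °C in HEPES pH 7.5 with 100 mM NaCl, 1 mM MgCl2 and 0.5 nM [35S]GTPγS, then 5 min more with 0.1–10 μM compound. Gαo was immunoprecipitated and bound radioactivity counted by scintillation.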

[2] = read-out: Percent Binding Inhibition, FLNA-binding compound 0.01 μM
[3] = read-out: Percent Binding Inhibition, FLNA-binding compound 0.1 μM
[4] = read-out: Percent Binding Inhibition, FLNA-binding compound 1 μM
[5] = 0.1 μM compound, [35S]GTPγS binding to Gαo, striatal membranes
[6] = 1 μM compound, [35S]GTPγS binding to Gαo, striatal membranes

SMILES	inhibition at 0.01 µM [1, 2] [%]	inhibition at 0.1 µM [1, 3] [%]	inhibition at 1 µM [1, 4] [%]	% DAMGO (0.1 μM) (mu opiate receptor (MOR); 0.1 μM compound) [%]	MOR agonist activity, percent [35S]GTPγS binding at the stated compound concentration (mu opiate receptor (MOR); [5]) [%]	MOR agonist activity, percent [35S]GTPγS binding at the stated compound concentration (mu opiate receptor (MOR); 1 μM compound + 1 μM β-FNA) [%]	% DAMGO + BFNA (mu opiate receptor (MOR)) [%]	% DAMGO (1 μM) (mu opiate receptor (MOR); 1 μM compound) [%]	MOR agonist activity, percent [35S]GTPγS binding at the stated compound concentration (mu opiate receptor (MOR); [6]) [%]	inhibition at 0.01 µM ([1]; FLNA-binding compound 0.01 μM, read-out: Percent Binding Inhibition) [%]	inhibition at 0.1 µM ([1]; FLNA-binding compound 0.1 μM, read-out: Percent Binding Inhibition) [%]	inhibition at 1 µM ([1]; FLNA-binding compound 1 μM, read-out: Percent Binding Inhibition) [%]
COc1c2c(cc3c1C(CC(=O)CCc1ccc(Cl)cc1)[N+](C)(C)CC3)OCO2 (stereo not drawn) [Compound B0017]	28.3	36.6	44.6	58.9	99.6	49.6	75.2	45.6	122.0	–	–	–
COc1c2c(cc3c1C(CC(=O)CCc1ccc(F)cc1)[N+](C)(C)CC3)OCO2 (stereo not drawn) [Compound B0018]	37.2	43.7	47.6	70.3	118.8	45.6	69.1	53.5	143.0	–	–	–
COc1c2c(cc3c1C(CC(=O)/C=C/c1ccc(Cl)cc1)[N+](C)(C)CC3)OCO2 (stereo not drawn) [Compound B0019]	34.3	41	49	59.7	101.0	81.4	123.3	96.0	256.5	–	–	–
CCOc1ccc(C(=O)CC2c3c(cc4c(c3OC)OCO4)CC[N+]2(C)C)cc1F (stereo not drawn) [Compound B0020]	38.1	45.5	50.6	30.1	51.6	24.9	47.8	68.0	181.6	–	–	–
COc1ccc(C(=O)CC2c3c(cc4c(c3OC)OCO4)CC[N+]2(C)C)cc1C (stereo not drawn) [Compound B0021]	32.5	43.1	47.6	75.9	126.9	42.9	123.6	104.7	256.4	–	–	–
COc1cccc(OC)c1C(=O)CC1c2c(cc3c(c2OC)OCO3)CC[N+]1(C)C (stereo not drawn) [Compound B0023]	28.5	37.8	46.4	99.4	166.1	28.4	81.8	100.1	245.3	–	–	–
COc1ccc(C(=O)CC2c3c(cc4c(c3OC)OCO4)CC[N+]2(C)C)cc1 (stereo not drawn) [Compound B0024]	34.8	43.4	47.7	93.2	155.8	20.2	58.2	116.7	285.9	–	–	–
COc1ccccc1C(=O)CC1c2c(cc3c(c2OC)OCO3)CC[N+]1(C)C (stereo not drawn) [Compound B0025]	41.7	49.4	56.6	96.3	159.6	137.7	211.8	86.8	234.6	–	–	–
COc1ccc(C(=O)CC2c3c(cc4c(c3OC)OCO4)CC[N+]2(C)C)cc1OC (stereo not drawn) [Compound B0026]	41.1	43.3	48.2	88.8	152.0	28.8	55.3	87.4	233.3	–	–	–
COc1ccc(C(=O)CC2c3c(cc4c(c3OC)OCO4)CC[N+]2(C)C)c(F)c1 (stereo not drawn) [Compound B0027]	40.2	46.7	49.8	82.3	140.9	21.6	41.5	100.0	266.9	–	–	–
COc1c2c(cc3c1C(CC(=O)CCc1ccc(O)cc1)[N+](C)(C)CC3)OCO2 (stereo not drawn) [Compound B0028]	38.2	42.8	49.1	103.5	199.1	55.0	125.3	131.0	357.7	–	–	–
COc1ccc(CC(=O)CC2c3c(cc4c(c3OC)OCO4)CC[N+]2(C)C)c(OC)c1 (stereo not drawn) [Compound B0029]	33.4	42.9	50.2	89.4	171.9	17.6	40.1	77.0	210.3	–	–	–
COc1ccccc1CC(O)CC1c2c(cc3c(c2OC)OCO3)CCN1C (stereo not drawn) [Compound B0030]	–	–	–	62.6	107.2	90.1	172.9	103.4	276.1	47	50.5	57.6
COc1c2c(cc3c1C(CC(=O)Cc1ccccc1C)[N+](C)(C)CC3)OCO2 (stereo not drawn) [Compound B0031]	36.2	44.2	50.5	109.6	210.8	28.8	65.6	99.6	272.0	–	–	–
COc1ccccc1CC(O)CC1c2c(cc3c(c2OC)OCO3)CC[N+]1(C)C (stereo not drawn) [Compound B0032]	45.1	51.3	48.9	115.0	221.1	15.6	35.5	109.0	297.7	–	–	–
